According to US20170232083A1, “METHODS OF DIAGNOSIS AND TREATMENT OF CELIAC DISEASE IN CHILDREN” (priority 2014, published 2017):

Test system: PBMC (polyclonal gluten-specific T cells) of paediatric and adult CD patients
Test: IFN-γ ELISpot of PBMC after 3 day oral wheat challenge (SFU, % of maximal peptide response, dominance scores, EC50; Examples 5-6)
Assay type: cell-based, human
Settings: for IFN-γ ELISpot response: after oral wheat challenge
[1] = patient A, 11-17 yrs, cut-off 10 SFU
[2] = patient D, max peptide 30.5 SFU
[3] = patient E, H, 11-17 yrs, cut-off 10 SFU
[4] = patient F, 11-17 yrs, cut-off 10 SFU
[5] = patient G, 11-17 yrs, cut-off 10 SFU
[6] = patient H (HLA-DQ2.5 homozygote), 3-5yrs, cut-off 10 SFU
[7] = patient H, 11-17 yrs, cut-off 10 SFU
[8] = patient ID not given, 11-17 yrs, cut-off 10 SFU
[9] = patient ID not given, max peptide 95 SFU
[10] = patient N, 3-5yrs, cut-off 10 SFU
[11] = patient P, 11-17 yrs, cut-off 21.6 SFU
[12] = patient Q, 11-17 yrs, cut-off 10 SFU
[13] = patient U, H, 11-17 yrs, cut-off 10 SFU
[14] = patient V, 6-10 yrs, cut-off 10 SFU
[15] = patient Y, 6-10 yrs, cut-off 10 SFU
[16] = patient eleven, 6-10 yrs, cut-off 10 SFU
[17] = patient eleven, max peptide 57 SFU
[18] = patient five, max peptide 48 SFU
[19] = patient four, 3-5yrs, cut-off 10 SFU
[20] = patient four, max peptide 44 SFU
[21] = patient seven, 6-10 yrs, cut-off 10.5 SFU
[22] = patient ten, 3-5yrs, cut-off 10 SFU
[23] = patient three, 6-10 yrs, cut-off 10.5 SFU
[24] = patient twelve, 11-17 yrs, cut-off 10 SFU
[25] = patient two, 3-5yrs, cut-off 10 SFU
[26] = patient two, max peptide 60 SFU

| Sequence | IFN-γ ELISpot response [1] [SFU] | Significant response as percentage of maximal peptide SFU [2] | IFN-γ ELISpot response [3] [SFU] | Significant response as percentage of maximal peptide SFU (patient E, max peptide 224 SFU) | IFN-γ ELISpot response [4] [SFU] | Significant response as percentage of maximal peptide SFU (patient F, max peptide 178 SFU) | IFN-γ ELISpot response [5] [SFU] | IFN-γ ELISpot response [6] [SFU] | IFN-γ ELISpot response [7] [SFU] | Significant response as percentage of maximal peptide SFU (patient H, max peptide 17 SFU) | IFN-γ ELISpot response [8] [SFU] | Significant response as percentage of maximal peptide SFU [9] | Significant response as percentage of maximal peptide SFU (patient II, max peptide 15 SFU) | Significant response as percentage of maximal peptide SFU (patient J, max peptide 196 SFU) | Significant response as percentage of maximal peptide SFU (patient K, max peptide 53 SFU) | Significant response as percentage of maximal peptide SFU (patient M, max peptide 48 SFU) | IFN-γ ELISpot response [10] [SFU] | IFN-γ ELISpot response [11] [SFU] | Significant response as percentage of maximal peptide SFU (patient P, max peptide 64 SFU) | IFN-γ ELISpot response [12] [SFU] | further results |
| --- | --- | --- | --- | --- | --- | --- | --- | --- | --- | --- | --- | --- | --- | --- | --- | --- | --- | --- | --- | --- | --- |
| LQPFPQPQLPYPQP | 1 | ′′ (21-40% = ′′) | 86 | ′′ (21-40% = ′′) | 64 | ′′ (21-40% = ′′) | 3 | 22 | 14 | + (>70% = +) | 51 | ′′′ (41-70% = ′′′) | + (>70% = +) | ′′′ (41-70% = ′′′) | ′ (11-20% = ′) | ′′′ (41-70% = ′′′) | 4 | 25 | ′′ (21-40% = ′′) | 38 | Significant response as percentage of maximal peptide SFU (patient Q, max peptide 97 SFU): ′′ (21-40% = ′′); IFN-γ ELISpot response [13]: 35 SFU; IFN-γ ELISpot response [14]: 10 SFU; Significant response as percentage of maximal peptide SFU (patient V, max peptide 35 SFU): ′′ (21-40% = ′′); IFN-γ ELISpot response [15]: 14 SFU; Significant response as percentage of maximal peptide SFU (patient Y, max peptide 16 SFU): + (>70% = +); IFN-γ ELISpot response [16]: 29 SFU; Significant response as percentage of maximal peptide SFU [17]: ′′′ (41-70% = ′′′); Significant response as percentage of maximal peptide SFU [18]: ′′′ (41-70% = ′′′); IFN-γ ELISpot response [19]: 17 SFU; Significant response as percentage of maximal peptide SFU [20]: ′′ (21-40% = ′′); IFN-γ ELISpot response [21]: 5 SFU; IFN-γ ELISpot response [22]: 5 SFU; IFN-γ ELISpot response [23]: 93 SFU; IFN-γ ELISpot response [24]: 10 SFU; IFN-γ ELISpot response [25]: 21 SFU; Significant response as percentage of maximal peptide SFU [26]: ′′ (21-40% = ′′) |
| LQPRPQPELPYPQP | 6 | ′′′ (41-70% = ′′′) | 142 | ′′′ (41-70% = ′′′) | 178 | + (>70% = +) | 4 | 45 | 10 | ′′′ (41-70% = ′′′) | 89 | + (>70% = +) | ′′′ (41-70% = ′′′) | + (>70% = +) | ′′′ (41-70% = ′′′) | + (>70% = +) | 7 | 64 | + (>70% = +) | 97 | Significant response as percentage of maximal peptide SFU (patient L, max peptide 11 SFU): + (>70% = +); Significant response as percentage of maximal peptide SFU (patient Q, max peptide 97 SFU): + (>70% = +); IFN-γ ELISpot response [13]: 81 SFU; Significant response as percentage of maximal peptide SFU (patient U, max peptide 81 SFU): + (>70% = +); IFN-γ ELISpot response [14]: 30 SFU; Significant response as percentage of maximal peptide SFU (patient V, max peptide 35 SFU): + (>70% = +); IFN-γ ELISpot response [15]: 11 SFU; Significant response as percentage of maximal peptide SFU (patient Y, max peptide 16 SFU): ′′′ (41-70% = ′′′); IFN-γ ELISpot response [16]: 38 SFU; Significant response as percentage of maximal peptide SFU [17]: ′′′ (41-70% = ′′′); Significant response as percentage of maximal peptide SFU [18]: + (>70% = +); IFN-γ ELISpot response [19]: 24 SFU; Significant response as percentage of maximal peptide SFU [20]: ′′′ (41-70% = ′′′); IFN-γ ELISpot response [21]: 6 SFU; IFN-γ ELISpot response [22]: 6 SFU; IFN-γ ELISpot response [23]: 146 SFU; IFN-γ ELISpot response [24]: 18 SFU; IFN-γ ELISpot response [25]: 36 SFU; Significant response as percentage of maximal peptide SFU [26]: ′′′ (41-70% = ′′′) |
